Experiments:
Assay in all cases: relative viability (nuclei count vs DMSO), 5 days (fraction); higher = more cells survive
Ponatinib + Lapatinib = compound: Cc1ccc(C(=O)Nc2ccc(CN3CCN(C)CC3)c(C(F)(F)F)c2)cc1C#Cc1cnc2cccnn12 [Ponatinib] + CS(=O)(=O)CCNCc1ccc(-c2ccc3ncnc(Nc4ccc(OCc5cccc(F)c5)c(Cl)c4)c3c2)o1 [Lapatinib] (partner 2 µM)
Outline: (§1)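 One day after seeding in 1536-well plates, lung cancer cell lines were dosed by pin tool. Dosing was either single-drug or a fixed anchor-drug dose plus five library-drug doses (not always all listed) in √10 steps. After 5 days, nuclei were stained in one fix-and-stain step and counted on 4× images, and relative viability is the nuclei count of treated wells over that of vehicle wells, given as the median of duplicate plates.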

Ponatinib + Navitoclax = compound: Cc1ccc(C(=O)Nc2ccc(CN3CCN(C)CC3)c(C(F)(F)F)c2)cc1C#Cc1cnc2cccnn12 [Ponatinib] + CC1(C)CCC(c2ccc(Cl)cc2)=C(CN2CCN(c3ccc(C(=O)NS(=O)(=O)c4ccc(N[C@H](CCN5CCOCC5)CSc5ccccc5)c(S(=O)(=O)C(F)(F)F)c4)cc3)CC2)C1 [Navitoclax] (partner 0.5 µM)
Outline: as §1

Pazopanib + Luminespib = compound: Cc1ccc(Nc2nccc(N(C)c3ccc4c(C)n(C)nc4c3)n2)cc1S(N)(=O)=O [Pazopanib] + CCNC(=O)c1noc(-c2cc(C(C)C)c(O)cc2O)c1-c1ccc(CN2CCOCC2)cc1 [Luminespib] (partner 0.01 µM)
Outline: as §1

Pazopanib + Dasatinib = compound: Cc1ccc(Nc2nccc(N(C)c3ccc4c(C)n(C)nc4c3)n2)cc1S(N)(=O)=O [Pazopanib] + Cc1nc(Nc2ncc(C(=O)Nc3c(C)cccc3Cl)s2)cc(N2CCN(CCO)CC2)n1 [Dasatinib] (partner 0.075 µM)
Outline: as §1

Cell Line	relative viability (Ponatinib + Lapatinib; first compound 0.002 µM)	relative viability (Ponatinib + Lapatinib; first compound 0.006325 µM)	relative viability (Ponatinib + Lapatinib; first compound 0.06325 µM)	relative viability (Ponatinib + Lapatinib; first compound 0.2 µM)	relative viability (Ponatinib + Navitoclax; first compound 0.002 µM)	relative viability (Ponatinib + Navitoclax; first compound 0.006325 µM)	relative viability (Ponatinib + Navitoclax; first compound 0.06325 µM)	relative viability (Ponatinib + Navitoclax; first compound 0.2 µM)	relative viability (Pazopanib + Luminespib; first compound 0.01 µM)	relative viability (Pazopanib + Luminespib; first compound 0.03162 µM)	relative viability (Pazopanib + Luminespib; first compound 0.1 µM)	relative viability (Pazopanib + Luminespib; first compound 0.3162 µM)	relative viability (Pazopanib + Luminespib; first compound 1 µM)	relative viability (Pazopanib + Dasatinib; first compound 0.01 µM)	relative viability (Pazopanib + Dasatinib; first compound 0.03162 µM)	relative viability (Pazopanib + Dasatinib; first compound 0.1 µM)	relative viability (Pazopanib + Dasatinib; first compound 0.3162 µM)	relative viability (Pazopanib + Dasatinib; first compound 1 µM)
NCI-H1975	0.811	0.817	1.14	1.03	1.18	1.01	1.2	0.915	0.157	0.326	0.275	0.272	0.331	0.371	0.359	0.336	0.415	0.359
CAL-12T	0.702	0.714	1	0.698	1.07	1.16	1.43	1.24	0.434	0.321	0.974	0.426	0.783	0.308	0.412	0.312	0.458	0.462
NCI-H1623	–	–	–	–	–	–	–	–	0.465	0.515	0.512	0.479	0.634	0.507	0.467	0.509	0.488	0.608
HCC-44	0.969	0.903	1.12	1.06	0.941	0.98	1.16	0.93	1.11	1.07	1.07	1.04	1.12	–	–	–	–	–
EKVX	0.222	0.217	0.349	0.234	0.878	0.907	1.04	0.735	0.987	0.763	0.728	0.873	0.857	0.63	0.53	0.54	0.592	0.601
NCI-H1651	0.724	0.955	0.896	0.756	1.01	1.06	1.25	1.06	0.853	0.869	0.785	0.741	0.878	0.371	0.46	0.397	0.436	0.5
NCI-H2170	0.281	0.295	0.289	0.298	0.643	0.661	0.684	0.765	0.675	0.766	0.712	0.532	0.627	0.536	0.572	0.537	0.511	0.639
NCI-H1703	0.989	0.787	0.339	0.313	0.856	0.943	0.278	0.205	–	–	–	–	–	–	–	–	–	–
Calu-6	1	0.954	1.22	1.03	0.828	0.682	0.941	0.717	–	–	–	–	–	–	–	–	–	–
EBC-1	0.2	0.233	0.225	0.227	0.504	0.534	0.358	0.304	–	–	–	–	–	–	–	–	–	–
A-427	1.05	0.96	1.05	0.98	0.916	0.971	1.07	0.854	1.08	1.18	0.786	1.02	1.19	0.652	0.72	0.614	0.694	0.701
NCI-H2405	0.928	1.03	1.08	0.877	0.855	0.917	0.844	0.62	0.728	0.837	0.821	0.815	0.73	0.222	0.227	0.147	0.256	0.249
NCI-H1355	0.939	0.947	1.17	1.02	0.984	1.08	1.17	1.08	0.695	0.709	0.816	0.675	0.838	0.443	0.549	0.773	0.639	0.686
SK-MES-1	0.472	0.531	0.749	0.59	1.25	1.12	1.3	1.19	0.846	0.79	0.746	0.913	0.75	0.361	0.34	0.414	0.474	0.383
RERF-LC-KJ	0.8	0.882	0.881	0.8	1.09	0.968	1.07	1.06	1.31	1.36	1.29	1.23	1.23	0.836	0.773	0.915	0.722	0.765
NCI-H2228	1.07	1.51	1.15	1.13	1.18	1.01	1.43	0.811	0.142	0.135	0.153	0.155	0.177	0.589	0.561	0.383	0.481	0.457
HOP-62	0.929	0.987	0.856	0.91	0.943	0.984	1.01	0.817	0.79	0.89	0.915	0.953	0.981	0.554	0.713	0.681	0.659	0.718

— the supplement of paper PMC10307832
